Measurements published in patent publication US11464227B2, “Enhanced microbial and biorational control of nematode pests of plants” (ADVANCED BIOLOGICAL MARKETING, INC., priority 2017, dated 2022).

Test system: plant
Assay: Plant growth and disease resistance induction by Trichoderma metabolite
Format: in vivo
Details: at very low concentrations
From the text: These endophytic microorganisms frequently are fully symbiotic with plants (Harman, Howell, et al., 2004). These endophytic symbionts have abilities to induce multiple beneficial effects in plants, including induced resistance to diseases and potentially other pests; resistance to abiotic stresses such as drought, salt and flooding; improved efficiency of uses of nitrogen and other plant nutrients; enhancement of seed germination and seedling vigor; and enhanced plant growth and development. There are numerous diverse genera of microbes that induce at least most of these changes in plant performance, including mycorrhizae, plant growth promoting rhizobacteria, and Basidomycetous fungi in the Sebaciles such as Piriformaspora indica. These organisms have an endophytic versus a plant pathogenic life style (Shoresh, Mastouri, et al., 2010) typical of numerous other plant-associated microorganisms. The systemic changes in plant gene expression are presumed to be induced by the production of specific triggering metabolites from these different organisms. […] (Cawoy, Mariutto, et al., 2014, Debois, Fernandez, et al., 2015), and hydrophobic proteins (Djonovic, Vargas, et al., 2007, Ruoccco, Lanzuise, et al., 2015) and volatile and nonvolatile metabolites from Trichoderma […], et al., 2008).

## C=CC(O)CCCCC (centres unmarked) [1-octene-3-ol]
  induction of plant disease resistance: highly effective
  plant growth: strongly enhances
